Laboratory results published in US20240327412A1, “FACTOR XIIA INHIBITORS” (KALVISTA PHARMACEUTICALS LIMITED, priority 2021, published 2024).

Key:
Assay type in all cases: biochemical
Human Factor XIIa = molecular target: T1, Human Factor XIIa (Homo sapiens, UniProt P00748); test: Determination of FXIIa inhibition (fluorogenic substrate H-DPro-Phe-Arg-AFC, IC50 assay); details: substrate at Km concentration, 25° C.; category scale; read-out: Human FXII IC50 (nm)
T1 construct: Proteolytic cleavage of FXII to heavy and light chains of FXIIa dramatically increases catalytic activity; purchased Enzyme Research Laboratories
T1 sequence (P00748 373-615 limits assumed): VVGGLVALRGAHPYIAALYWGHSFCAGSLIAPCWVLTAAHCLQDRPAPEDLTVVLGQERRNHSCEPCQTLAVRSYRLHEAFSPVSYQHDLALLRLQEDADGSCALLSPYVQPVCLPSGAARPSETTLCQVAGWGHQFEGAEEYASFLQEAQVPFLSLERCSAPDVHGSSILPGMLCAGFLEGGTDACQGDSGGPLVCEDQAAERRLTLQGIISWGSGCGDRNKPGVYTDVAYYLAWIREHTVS
T1 sequence (P00748 20-372 partner limits assumed): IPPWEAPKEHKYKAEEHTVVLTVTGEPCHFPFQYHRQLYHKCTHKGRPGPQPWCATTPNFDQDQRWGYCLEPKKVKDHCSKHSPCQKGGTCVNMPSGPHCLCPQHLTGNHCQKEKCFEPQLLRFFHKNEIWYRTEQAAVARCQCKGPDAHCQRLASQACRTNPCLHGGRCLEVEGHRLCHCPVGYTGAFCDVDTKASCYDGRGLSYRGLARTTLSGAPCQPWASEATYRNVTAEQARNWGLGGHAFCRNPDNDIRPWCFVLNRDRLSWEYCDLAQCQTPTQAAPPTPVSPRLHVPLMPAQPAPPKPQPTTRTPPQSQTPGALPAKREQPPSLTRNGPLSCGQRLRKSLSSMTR
Summary of the method: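 At substrate Km and 25° C., the rate of AFC release from H-DPro-Phe-Arg-AFC by human Factor XIIa was followed for 5 min across compound concentrations. Inhibition was derived as percent of uninhibited rate, giving IC50.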

Plasma Kallikrein = molecular target: T2, Plasma Kallikrein (Homo sapiens, UniProt P03952); test: Related protease inhibition: Plasma Kallikrein (fluorogenic substrate at Km); details: class symbols per Table 18, read-out: IC50 (human PKal)
T2 construct: FXIIa converts plasma prekallikrein (PK) to plasma kallikrein (PKa)
Summary of the method: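 Enzymatic activity was followed as release of fluorescence from a fluorogenic substrate over 5 min at 25° C, with test compound at various concentrations. The linear rate per minute was converted to % activity, and IC50 was taken as the concentration giving 50% inhibition of uninhibited enzyme activity.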

KLK1 = KLK1 (Homo sapiens, UniProt P06870); test: Related protease inhibition: KLK1 (fluorogenic substrate at Km); details: class symbols per Table 18
Protocol: (§1) In vitro inhibition of related proteases was determined using an IC50 assay based on standard literature methods (see e.g. Shori et al., Biochem. Pharmacol., 1992, 43, 1209; Bouckaert et al., European Journal of Medicinal Chemistry 110 (2016) 181). Human serine protease enzyme Plasma Kallikrein, KLK1, FXa, Plasmin, Thrombin and Trypsin were assayed for enzymatic activity using an appropriate fluorogenic substrate at Km concentration, FXIa at fixed substrate concentration of 100 μM and various concentrations of the test compound. Protease activity was measured by monitoring the accumulation of liberated fluorescence from the substrate over 5 min at 25° C. The linear rate of fluorescence increase per minute was expressed as percentage (%) activity. IC50 values were calculated as the concentration of inhibitor giving 50% inhibition of the uninhibited enzyme activity (100%).

FXa = FXa (Homo sapiens, UniProt P00742); test: Related protease inhibition: FXa (fluorogenic substrate at Km); details: class symbols per Table 18
Protocol: as §1

Plasmin = Plasmin (Homo sapiens, UniProt P00747); test: Related protease inhibition: Plasmin (fluorogenic substrate at Km); details: class symbols per Table 18
Protocol: as §1

Thrombin = Thrombin (Homo sapiens, UniProt P00734); test: Related protease inhibition: Thrombin (fluorogenic substrate at Km); details: class symbols per Table 18
Protocol: as §1

Trypsin = Trypsin (Homo sapiens, UniProt P07477); test: Related protease inhibition: Trypsin (fluorogenic substrate at Km); details: class symbols per Table 18
Protocol: as §1

Plasmin, sequence (P00747 581-810 limits assumed): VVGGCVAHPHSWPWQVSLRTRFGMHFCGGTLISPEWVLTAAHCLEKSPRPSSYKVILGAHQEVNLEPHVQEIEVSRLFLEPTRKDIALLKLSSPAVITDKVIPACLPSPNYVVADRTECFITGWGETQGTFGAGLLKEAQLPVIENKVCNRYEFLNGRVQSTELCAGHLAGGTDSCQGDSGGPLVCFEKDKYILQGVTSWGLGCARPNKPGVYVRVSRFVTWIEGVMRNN
Plasmin, sequence (P00747 97-580 partner limits assumed): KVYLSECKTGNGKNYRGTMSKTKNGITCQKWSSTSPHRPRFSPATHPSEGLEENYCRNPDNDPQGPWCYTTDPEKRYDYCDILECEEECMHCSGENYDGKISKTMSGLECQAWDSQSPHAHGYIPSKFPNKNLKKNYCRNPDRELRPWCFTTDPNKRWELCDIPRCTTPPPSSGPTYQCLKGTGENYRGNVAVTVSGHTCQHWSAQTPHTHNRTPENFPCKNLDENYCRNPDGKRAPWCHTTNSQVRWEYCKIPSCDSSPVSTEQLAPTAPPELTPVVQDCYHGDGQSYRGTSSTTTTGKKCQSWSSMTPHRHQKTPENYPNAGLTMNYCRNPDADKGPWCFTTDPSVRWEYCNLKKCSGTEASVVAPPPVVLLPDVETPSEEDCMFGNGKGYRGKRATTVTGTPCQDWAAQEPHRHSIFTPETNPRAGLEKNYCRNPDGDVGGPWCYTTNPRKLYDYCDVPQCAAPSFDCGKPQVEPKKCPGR
FXa, sequence (P00742 235-488 limits assumed): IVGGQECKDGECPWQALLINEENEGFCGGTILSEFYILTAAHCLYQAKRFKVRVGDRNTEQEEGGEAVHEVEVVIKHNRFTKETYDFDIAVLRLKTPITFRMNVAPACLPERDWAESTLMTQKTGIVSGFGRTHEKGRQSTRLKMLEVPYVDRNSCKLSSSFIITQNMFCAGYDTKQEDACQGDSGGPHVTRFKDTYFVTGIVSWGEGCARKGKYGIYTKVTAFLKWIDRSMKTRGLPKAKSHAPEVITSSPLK
FXa, sequence (P00742 41-179 partner limits assumed): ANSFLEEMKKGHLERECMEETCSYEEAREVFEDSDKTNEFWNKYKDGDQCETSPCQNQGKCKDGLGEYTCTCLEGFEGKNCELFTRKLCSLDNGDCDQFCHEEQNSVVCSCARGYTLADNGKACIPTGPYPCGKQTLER
KLK1, sequence (P06870 25-262): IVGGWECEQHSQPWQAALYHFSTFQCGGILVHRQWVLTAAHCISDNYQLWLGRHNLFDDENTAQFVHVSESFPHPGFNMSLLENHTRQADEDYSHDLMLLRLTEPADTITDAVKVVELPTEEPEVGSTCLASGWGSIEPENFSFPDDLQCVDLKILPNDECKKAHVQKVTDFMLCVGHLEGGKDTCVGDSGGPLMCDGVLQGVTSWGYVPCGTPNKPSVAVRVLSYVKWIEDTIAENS
T2 sequence (P03952 391-638 limits assumed): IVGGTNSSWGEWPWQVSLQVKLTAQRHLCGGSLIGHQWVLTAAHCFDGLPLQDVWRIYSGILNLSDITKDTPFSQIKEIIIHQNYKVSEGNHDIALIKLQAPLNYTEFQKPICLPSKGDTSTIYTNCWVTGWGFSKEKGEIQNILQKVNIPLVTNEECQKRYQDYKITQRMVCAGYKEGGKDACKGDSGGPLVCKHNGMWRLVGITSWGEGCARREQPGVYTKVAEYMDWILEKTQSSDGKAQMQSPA
T2 sequence (P03952 20-390 partner limits assumed): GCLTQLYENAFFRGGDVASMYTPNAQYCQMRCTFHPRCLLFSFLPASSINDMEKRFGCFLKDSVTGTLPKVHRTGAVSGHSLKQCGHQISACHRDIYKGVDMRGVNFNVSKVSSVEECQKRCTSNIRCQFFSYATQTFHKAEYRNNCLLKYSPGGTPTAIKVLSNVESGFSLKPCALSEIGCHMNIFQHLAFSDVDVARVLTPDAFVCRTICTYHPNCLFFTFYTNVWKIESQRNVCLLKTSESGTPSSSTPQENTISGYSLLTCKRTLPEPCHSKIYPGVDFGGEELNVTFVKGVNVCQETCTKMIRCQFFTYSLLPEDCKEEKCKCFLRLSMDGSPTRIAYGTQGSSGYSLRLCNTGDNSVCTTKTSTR

Row | Compound | IC50 (Human Factor XIIa) | IC50 (Plasma Kallikrein) | IC50 (KLK1) | IC50 (FXa) | IC50 (Plasmin) | IC50 (Thrombin) | IC50 (Trypsin)
1 | Cn1ccc(OCC23CCOC(CNc4cccc5c(N)nccc45)(C2)C3)nc1=O [Example 10940, 4-((1-(((1-aminoisoquinolin-5-yl)amino)methyl)-2-oxabicyclo[3.1.1]heptan-5-yl)methoxy)-1-methylpyrimidin-2(1H)-one] | 0.1 to 0.3 µM | > 40 µM | 10 to 40 µM | > 40 µM | > 40 µM | > 40 µM | 10 to 40 µM
2 | Nc1nccc2c(NCC34CC(COc5ccn6cnnc6c5)(CO3)C4)cccc12 [Example 6629, N5-((4-(([1,2,4]triazolo[4,3-a]pyridin-7-yloxy)methyl)-2-oxabicyclo[2.1.1]hexan-1-yl)methyl)isoquinoline-1,5-diamine] | 0.01 to 0.1 µM | > 40 µM | 1 to 3 µM | > 40 µM | 10 to 40 µM | > 40 µM | 10 to 40 µM
3 | Nc1nccc2c(NCC34CC(COc5ccc6c(c5)C(=O)NC6)(C3)C4)cccc12 [Example 1109, 6-((3-(((1-aminoisoquinolin-5-yl)amino)methyl)bicyclo[1.1.1]pentan-1-yl)methoxy)isoindolin-1-one] | 0.3 to 1 µM | > 40 µM | 1 to 3 µM | 10 to 40 µM |  | 10 to 40 µM | 
4 | Nc1nccc2c(NCC34CC(C(=O)N5CCn6ccnc6C5)(C3)C4)cccc12 [Example 1016, [3-[[(1-Aminoisoquinolin-5-yl)amino]methyl]-1-bicyclo[1.1.1]pentanyl]-(6,8-dihydro-5H-imidazo[1,2-a]pyrazin-7-yl)methanone] | 3 to 10 µM | > 40 µM | 3 to 10 µM | > 40 µM |  | > 40 µM | 
5 | Nc1nccc2c(NCC34CC(COc5ccn6ccnc6c5)(CO3)C4)cccc12 [Example 6601, 5-N-[[4-(Imidazo[1,2-a]pyridin-7-yloxymethyl)-2-oxabicyclo[2.1.1]hexan-1-yl]methyl]isoquinoline-1,5-diamine] | 0.01 to 0.1 µM | > 40 µM | 3 to 10 µM | 10 to 40 µM |  | 10 to 40 µM | 
6 | Cn1ccc(OCC23CN(C(=O)NCc4ccccc4)C(CNc4cccc5c(N)nccc45)(C2)C3)cc1=O [Example 12017, 1-(((1-aminoisoquinolin-5-yl)amino)methyl)-N-benzyl-4-(((1-methyl-2-oxo-1,2-dihydropyridin-4-yl)oxy)methyl)-2-azabicyclo[2.1.1]hexane-2-carboxamide] |  | 10 to 40 µM | 3 to 10 µM | 10 to 40 µM | 10 to 40 µM | > 40 µM | > 40 µM
7 | Cc1cc2c(NCC34CC(COc5ccn6ccnc6c5)(CO3)C4)ccnc2[nH]1 [Example 6605, N-((4-((imidazo[1,2-a]pyridin-7-yloxy)methyl)-2-oxabicyclo[2.1.1]hexan-1-yl)methyl)-2-methyl-1H-pyrrolo[2,3-b]pyridin-4-amine] | 3 to 10 µM | > 40 µM | 10 to 40 µM | 10 to 40 µM |  | 10 to 40 µM | 
8 | Cc1cn2ccc(OCC34CC(CNc5cccc6c(N)nccc56)(C3)C4)cc2n1 [Example 1006, N5-((3-(((2-Methylimidazo[1,2-a]pyridin-7-yl)oxy)methyl)bicyclo[1.1.1]pentan-1-yl)methyl)isoquinoline-1,5-diamine] | 0.1 to 0.3 µM | > 40 µM | 1 to 3 µM | 1 to 3 µM |  | 10 to 40 µM | 
9 | Nc1nccc2c(NCC34CC(CN5CCn6ccnc6C5)(C3)C4)cccc12 [Example 1004, 5-N-[[3-(6,8-Dihydro-5H-imidazo[1,2-a]pyrazin-7-ylmethyl)-1-bicyclo[1.1.1]pentanyl]methyl]isoquinoline-1,5-diamine] | 3 to 10 µM | > 40 µM | 3 to 10 µM | 1 to 3 µM |  | 10 to 40 µM | 
10 | Nc1nccc2c(NCC34CC(COc5ccc6nccn6c5)(C3)C4)cccc12 [Example 1017, 5-N-[[3-(Imidazo[1,2-a]pyridin-6-yloxymethyl)-1-bicyclo[1.1.1]pentanyl]methyl]isoquinoline-1,5-diamine] | 0.1 to 0.3 µM | > 40 µM | 3 to 10 µM | 10 to 40 µM |  | 10 to 40 µM | 
11 | Nc1nccc2c(NC[C@H]3C[C@H](COc4ccn5ccnc5c4)C3)cccc12 [Example 4401, N5-((trans-3-((imidazo[1,2-a]pyridin-7-yloxy)methyl)cyclobutyl)methyl)isoquinoline-1,5-diamine] | 0.3 to 1 µM | > 40 µM | 1 to 3 µM | > 40 µM |  | > 40 µM | 
12 | Cc1cc2c(NCC34CC(COc5ccn6ccnc6c5)(C3)C4)ccnc2[nH]1 [Example 1012, N-((3-((Imidazo[1,2-a]pyridin-7-yloxy)methyl)bicyclo[1.1.1]pentan-1-yl)methyl)-2-methyl-1H-pyrrolo[2,3-b]pyridin-4-amine] | 1 to 3 µM | > 100 µM | > 40 µM | 1 to 3 µM |  | 1 to 3 µM | 
13 | Nc1nccc2c(NCC34CC(COc5ccc6nnc(C(F)F)n6n5)(CO3)C4)cccc12 [Example 6608, N5-((4-(((3-(difluoromethyl)-[1,2,4]triazolo[4,3-b]pyridazin-6-yl)oxy)methyl)-2-oxabicyclo[2.1.1]hexan-1-yl)methyl)isoquinoline-1,5-diamine] | 0.3 to 1 µM | > 40 µM | 3 to 10 µM | > 40 µM |  | > 40 µM | 
14 | Nc1nccc2c(NCC34CC(COc5ccc6nccn6c5)(CCO3)C4)cccc12 [Example 10904, N5-((5-((imidazo[1,2-a]pyridin-6-yloxy)methyl)-2-oxabicyclo[3.1.1]heptan-1-yl)methyl)isoquinoline-1,5-diamine] | 0.01 to 0.1 µM | > 40 µM | 3 to 10 µM | > 40 µM |  | 10 to 40 µM | 
15 | Nc1nccc2c(NCC34CC(COC5Cc6nccn6C5)(C3)C4)cccc12 (stereo not shown) [Example 1118, N5-((3-(((6,7-dihydro-5H-pyrrolo[1,2-a]imidazol-6-yl)oxy)methyl)bicyclo[1.1.1]pentan-1-yl)methyl)isoquinoline-1,5-diamine] | 1 to 3 µM | > 40 µM | 3 to 10 µM | > 40 µM |  | 10 to 40 µM | 
16 | Nc1nccc2c(NCC34COC(COc5ccc6nnc(C(F)F)n6n5)(C3)C4)cccc12 [Example 2204, N5-((1-(((3-(difluoromethyl)-[1,2,4]triazolo[4,3-b]pyridazin-6-yl)oxy)methyl)-2-oxabicyclo[2.1.1]hexan-4-yl)methyl)isoquinoline-1,5-diamine] | 0.3 to 1 µM | > 40 µM | 3 to 10 µM | > 40 µM |  | > 40 µM | 
17 | c1cc2cc(NCC34CC(COc5ccn6ccnc6c5)(C3)C4)ccc2cn1 [Example 1011, N-((3-((imidazo[1,2-a]pyridin-7-yloxy)methyl)bicyclo[1.1.1]pentan-1-yl)methyl)isoquinolin-6-amine] | 10 to 40 µM | > 100 µM | 10 to 40 µM | 1 to 3 µM |  | 10 to 40 µM | 
18 | Cn1ccc(OCC23COC(CNc4cccc5c(N)nccc45)(C2)C3)cc1=O [Example 6609, 4-((1-(((1-aminoisoquinolin-5-yl)amino)methyl)-2-oxabicyclo[2.1.1]hexan-4-yl)methoxy)-1-methylpyridin-2(1H)-one] | 0.1 to 0.3 µM | > 40 µM | 3 to 10 µM | > 40 µM |  | > 40 µM | 
19 | Nc1nccc2c(NCC34CC(COc5cnc6cc[nH]c6c5)(C3)C4)cccc12 [Example 1101, 5-N-[[3-(1H-pyrrolo[3,2-b]pyridin-6-yloxymethyl)-1-bicyclo[1.1.1]pentanyl]methyl]isoquinoline-1,5-diamine] | 3 to 10 µM | > 40 µM | 3 to 10 µM | 1 to 3 µM |  | 10 to 40 µM | 
